This note sets out measurements from US20230159569A1, “DUAL HDAC6/PROTEASOME INHIBITORS, AND METHODS OF USE THEREOF” (UNIVERSITY OF MARYLAND, BALTIMORE, priority 2021, published 2023).

Molecules are shown by their SMILES. pIC50: −log10 of the molar value. Where only a bound is given, the exact number is not on record here.

In one assay the target is HDAC1 (Homo sapiens, UniProt Q13547). Kind of assay: HDAC activity assay (microfluidics mobility shift), HDAC1. As to conditions: compound concentration 1 μM; non-covalent dual inhibitors. The format is biochemical. The method, then:
(§1) HDAC ACTIVITY ASSAYS: HDAC activity is measured using a microfluidics mobility shift platform. A fluorescently labeled substrate is reacted with the enzyme along with addition of test compounds followed by reading through microfluidic chips. Enzyme activity is determined through quantitative comparison of the […] that results from enzymatic activity.
(§2) The concentration of each non-covalent inhibitor compound tested in this study was 1 μM.

The target of another assay is T1, HDAC6 (Homo sapiens, UniProt Q9UBN7).
T1 sequence (Q9UBN7 1-1215): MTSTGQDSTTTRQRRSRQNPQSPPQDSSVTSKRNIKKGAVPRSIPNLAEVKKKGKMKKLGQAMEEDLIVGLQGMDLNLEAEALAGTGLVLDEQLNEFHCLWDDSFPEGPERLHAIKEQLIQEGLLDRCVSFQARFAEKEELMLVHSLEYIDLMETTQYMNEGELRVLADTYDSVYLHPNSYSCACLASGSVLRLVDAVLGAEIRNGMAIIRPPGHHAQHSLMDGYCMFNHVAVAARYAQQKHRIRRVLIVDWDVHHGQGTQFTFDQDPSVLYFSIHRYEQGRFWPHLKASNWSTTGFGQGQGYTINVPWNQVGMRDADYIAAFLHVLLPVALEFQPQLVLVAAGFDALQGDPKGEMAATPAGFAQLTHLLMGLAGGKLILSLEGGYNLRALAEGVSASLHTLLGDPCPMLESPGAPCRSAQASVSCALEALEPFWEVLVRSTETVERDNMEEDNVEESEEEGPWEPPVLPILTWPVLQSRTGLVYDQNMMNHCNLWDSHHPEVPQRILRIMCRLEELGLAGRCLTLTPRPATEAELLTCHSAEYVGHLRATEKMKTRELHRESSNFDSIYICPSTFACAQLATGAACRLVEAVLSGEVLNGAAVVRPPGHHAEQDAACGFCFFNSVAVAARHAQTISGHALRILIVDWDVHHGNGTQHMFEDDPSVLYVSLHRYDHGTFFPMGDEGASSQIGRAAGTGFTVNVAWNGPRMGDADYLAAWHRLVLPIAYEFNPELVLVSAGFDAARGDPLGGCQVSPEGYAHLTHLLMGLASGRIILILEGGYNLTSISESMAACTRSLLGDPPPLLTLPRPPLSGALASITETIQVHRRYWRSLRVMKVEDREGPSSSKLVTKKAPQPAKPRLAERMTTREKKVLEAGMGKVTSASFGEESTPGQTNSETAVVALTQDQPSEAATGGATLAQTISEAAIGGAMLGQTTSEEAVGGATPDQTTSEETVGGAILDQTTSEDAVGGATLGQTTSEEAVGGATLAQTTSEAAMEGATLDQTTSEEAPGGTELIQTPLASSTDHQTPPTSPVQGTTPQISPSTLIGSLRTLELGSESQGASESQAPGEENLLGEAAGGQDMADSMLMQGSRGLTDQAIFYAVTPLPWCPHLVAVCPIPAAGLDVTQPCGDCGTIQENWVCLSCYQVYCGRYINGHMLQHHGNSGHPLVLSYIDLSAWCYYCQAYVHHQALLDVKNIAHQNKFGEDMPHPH
Kind of assay: HDAC activity assay (microfluidics mobility shift), HDAC6. As to conditions: for inhibition at 1 µM: compound concentration 1 μM, non-covalent dual inhibitors; for HDAC1/HDAC6 (HDAC1 IC50/HDAC6 IC50, selectivity for HDAC6) / pIC50: covalent dual inhibitors. The format is biochemical. The method, then:
as §1, §2

HDAC1, sequence (Q13547 whole entry): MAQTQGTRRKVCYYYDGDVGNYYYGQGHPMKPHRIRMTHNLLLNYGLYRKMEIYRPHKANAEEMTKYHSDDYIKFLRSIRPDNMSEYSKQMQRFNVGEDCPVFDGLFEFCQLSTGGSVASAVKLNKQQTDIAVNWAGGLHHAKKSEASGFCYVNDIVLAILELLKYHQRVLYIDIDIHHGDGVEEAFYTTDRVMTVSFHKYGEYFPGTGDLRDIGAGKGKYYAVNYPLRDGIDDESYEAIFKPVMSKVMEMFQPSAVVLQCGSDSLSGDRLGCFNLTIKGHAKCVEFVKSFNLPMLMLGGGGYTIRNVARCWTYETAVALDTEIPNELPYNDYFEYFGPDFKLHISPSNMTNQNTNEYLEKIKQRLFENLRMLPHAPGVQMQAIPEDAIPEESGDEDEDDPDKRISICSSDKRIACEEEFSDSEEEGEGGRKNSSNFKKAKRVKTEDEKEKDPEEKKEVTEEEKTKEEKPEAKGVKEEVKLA

Usually inhibition stands for the change of the read-out against control, counted positive when it falls. Consider `C[C@H](NC(=O)[C@H](CC(=O)NCC(C)(C)C)NC(=O)c1ccc(C(=O)Nc2ccccc2N)cc1)C(=O)NCc1ccc(F)cc1F` [AMC-2-091], for which the inhibition at 1 µM came out at 65% on HDAC1 and 13% at HDAC6.

`COC(=O)c1ccc(C(=O)N[C@@H](CC(=O)NCC(C)(C)C)C(=O)N[C@@H](C)C(=O)NCc2ccc(F)cc2F)cc1` [AMC-2-152]: the inhibition at 1 µM turned out to be 3% at HDAC1 and 18% at HDAC6.

For orientation: pIC50 means −log10 of the IC50, conventionally taken in molar units. For the molecule `CC(C)C[C@H](NC(=O)[C@H](Cc1ccccc1)NC(=O)c1ccc(C(=O)NO)cc1)B1OC2C[C@H]3C[C@H](C3(C)C)[C@@]2(C)O1` (stereo partly drawn) [AMC-3-017], on HDAC6, the “HDAC1/HDAC6 (HDAC1 IC50/HDAC6 IC50, selectivity for HDAC6)” value is reported as 14.3 and the pIC50 is 6.70.

Consider `CC(C)C[C@H](NC(=O)CNC(=O)c1ccc(C(=O)NO)cc1)B1OC2C[C@H]3C[C@H](C3(C)C)[C@@]2(C)O1` (stereo partly drawn) [AMC-3-031], for which, on HDAC6, the “HDAC1/HDAC6 (HDAC1 IC50/HDAC6 IC50, selectivity for HDAC6)” value is given as 20.4 and the pIC50 is 6.59.

Take `C[C@H](NC(=O)[C@H](CC(=O)NCC(C)(C)C)NC(=O)CCCCCCC(=O)O)C(=O)NCc1ccc(F)cc1F` [AMC-2-204]: the inhibition at 1 µM at HDAC1 is 3%; at HDAC6, 8%.

Turning to `CC(C)C[C@H](NC(=O)[C@H](Cc1ccccc1)NC(=O)c1ccc(/C=C/C(=O)NO)cc1)B1OC2C[C@H]3C[C@H](C3(C)C)[C@@]2(C)O1` (stereo partly drawn) [AMC-3-041], at HDAC6, the “HDAC1/HDAC6 (HDAC1 IC50/HDAC6 IC50, selectivity for HDAC6)” value came out at 0.93 and the pIC50 was 7.21.

Take `CC(C)C[C@H](NC(=O)CNC(=O)c1ccc(C(=O)NOC(=O)Nc2ccccc2)cc1)B1OC2C[C@H]3C[C@H](C3(C)C)[C@@]2(C)O1` (stereo partly drawn) [AMC-3-030]: on HDAC6, the “HDAC1/HDAC6 (HDAC1 IC50/HDAC6 IC50, selectivity for HDAC6)” value is listed as greater than 33.9 and the negative-log IC50 (pIC50) was 6.05.

`CCNC(=O)ONC(=O)c1ccc(C(=O)N[C@@H](Cc2ccccc2)C(=O)N[C@@H](CC(C)C)B2OC3C[C@H]4C[C@H](C4(C)C)[C@@]3(C)O2)cc1` (stereo partly drawn) [AMC-3-019]: on HDAC6, the “HDAC1/HDAC6 (HDAC1 IC50/HDAC6 IC50, selectivity for HDAC6)” value is given as greater than 3.69 and the negative logarithm of the IC50 (pIC50) is 5.09.

On to `C[C@H](NC(=O)[C@H](CC(=O)NCC(C)(C)C)NC(=O)c1ccc(C(=O)O)cc1)C(=O)NCc1ccc(F)cc1F` [AMC-2-225], for which the inhibition at 1 µM on HDAC1 is -3%; on HDAC6, 4%.

As for `C[C@H](NC(=O)[C@H](CC(=O)NCC(C)(C)C)NC(=O)CCC(=O)Nc1ccc(C(=O)NO)cc1)C(=O)NCc1ccc(F)cc1F` [AMC-2-036], the results for the inhibition at 1 µM on HDAC1 and at HDAC6 were 61% and 95%, respectively. Besides, the “potency and selectivity for HDAC6” value on HDAC6 (FIG. 11, fold improvement over HDAC1 inhibition) is listed as “highly potent”.

Take `CCNC(=O)ONC(=O)/C=C/c1ccc(C(=O)NCC(=O)N[C@@H](CC(C)C)B2OC3C[C@H]4C[C@H](C4(C)C)[C@@]3(C)O2)cc1` (stereo partly drawn) [AMC-3-055]: on HDAC6, the “HDAC1/HDAC6 (HDAC1 IC50/HDAC6 IC50, selectivity for HDAC6)” value was 2.30 and the pIC50 is 5.94.

For `C[C@H](NC(=O)[C@H](CC(=O)NCC(C)(C)C)NC(=O)CCCCCCC(=O)NO)C(=O)NCc1ccc(F)cc1F` [AMC-2-067], the figures for the inhibition at 1 µM on HDAC1 and on HDAC6 were 74% and 86%, respectively.

As for `COC(=O)CCCCCCC(=O)N[C@@H](CC(=O)NCC(C)(C)C)C(=O)N[C@@H](C)C(=O)NCc1ccc(F)cc1F` [AMC-2-198], the inhibition at 1 µM on HDAC1 was 1%; on HDAC6, 8%.

As for `CC(C)C[C@H](NC(=O)[C@H](Cc1ccccc1)NC(=O)c1ccc(C(=O)NOC(=O)NCc2ccccc2)cc1)B1OC2C[C@H]3C[C@H](C3(C)C)[C@@]2(C)O1` (stereo partly drawn) [AMC-3-033], on HDAC6, the “HDAC1/HDAC6 (HDAC1 IC50/HDAC6 IC50, selectivity for HDAC6)” value was found to be 4.75 and the pIC50 was 5.20.

Turning to `CCNC(=O)ONC(=O)c1ccc(C(=O)NCC(=O)N[C@@H](CC(C)C)B2OC3C[C@H]4C[C@H](C4(C)C)[C@@]3(C)O2)cc1` (stereo partly drawn) [AMC-3-048], at HDAC6, the “HDAC1/HDAC6 (HDAC1 IC50/HDAC6 IC50, selectivity for HDAC6)” value was greater than 5.58 and the pIC50 is 5.27.

In the case of `CC(C)C[C@H](NC(=O)[C@H](Cc1ccccc1)NC(=O)c1ccc(C(=O)NOC2CCCCO2)cc1)B1OC2C[C@H]3C[C@H](C3(C)C)[C@@]2(C)O1` (stereo partly drawn) [AMC-2-248], the pIC50 at HDAC6 was less than 4.52.

For the molecule `CC(C)C[C@H](NC(=O)CNC(=O)c1ccc(C(=O)NOC(=O)NCc2ccccc2)cc1)B1OC2C[C@H]3C[C@H](C3(C)C)[C@@]2(C)O1` (stereo partly drawn) [AMC-3-047], at HDAC6, the “HDAC1/HDAC6 (HDAC1 IC50/HDAC6 IC50, selectivity for HDAC6)” value turned out to be 8.77 and the pIC50 is 5.47.

Consider `C[C@H](NC(=O)[C@H](CC(=O)NCC(C)(C)C)NC(=O)C(=O)c1c[nH]c2ccccc12)C(=O)NCc1ccc(F)cc1F` [AMC-2-052], for which the inhibition at 1 µM at HDAC1 is 41%; at HDAC6, 59%.
